According to patent US10085981B2, “Protein acyl transferase inhibitors and methods of treatment” (UNIVERSITY OF SOUTH FLORIDA, priority 2015, dated 2018):
Like-named read-outs stand apart in the source and are kept apart here.

Columns and labels:
Erf2 [1] = molecular target: T1, Erf2 (Saccharomyces cerevisiae, UniProt Q06551); assay: Fluorescence-based coupled PAT assay of the rate of Erf2 autopalmitoylation; format: biochemical, S. cerevisiae; details: for mode of inhibition of Erf2 autopalmitoylation: inhibitor titrations varying inhibitor and palmitoyl-CoA
T1 construct: made in house; host or cells: Saccharomyces cerevisiae strain RJY1842 (erf4Δ/erf4Δ), galactose-induced pESC(-Leu) vector, Ni-NTA purified
T1 sequence (Q06551 whole entry): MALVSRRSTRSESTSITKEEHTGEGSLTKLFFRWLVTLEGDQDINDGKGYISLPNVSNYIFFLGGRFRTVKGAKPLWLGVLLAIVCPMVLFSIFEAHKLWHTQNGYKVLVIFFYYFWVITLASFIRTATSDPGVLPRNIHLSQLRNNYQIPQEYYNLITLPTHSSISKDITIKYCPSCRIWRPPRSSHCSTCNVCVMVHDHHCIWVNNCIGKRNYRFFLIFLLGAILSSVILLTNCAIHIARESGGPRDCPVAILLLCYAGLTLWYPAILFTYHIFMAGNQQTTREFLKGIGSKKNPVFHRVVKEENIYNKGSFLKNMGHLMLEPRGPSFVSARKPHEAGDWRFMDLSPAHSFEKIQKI
Protocol: The HTS application of protein palmitoylation was recently described, but was adjusted for this study. The production of NADH was monitored with a Biotek Mx fluorimeter (Biotek, Winooski, Vt.) using 340 nm excitation/465 nm emission. The 50 μl reaction contained 2 mM 2-Oxoglutarate (α-ketoglutamic acid), 0.25 mM NAD+, 0.2 mM Thiamine Pyrophosphate, 0.5 μg of purified 6×HIS-Erf2-(FLAG)-Erf4, 1 mM EDTA, 1 mM dithiothreitol, 8 mU 2-oxogluarate dehydrogenase (α-ketoglutarate dehydrogenase), 50 mM sodium phosphate, pH 6.8, and 0 100 μM inhibitor in 5% DMF. The reaction was initiated by the addition of 40 μM palmitoyl-CoA and monitored for 30 mins at 30° C. The first 10 mins of the reaction was analyzed to determine the initial rates of CoASH release. The PAT specific activity was determined from a standard curve of NADH production with different CoASH amounts. In these reactions, CoASH was added to the standard PAT reaction mixture (without Erf2/Erf4 complex or palmitoyl-CoA) and the reaction was allowed to proceed to equilibrium before fluorescence was measured.
The identification of palmitoylation inhibitors has been hampered by the lack of assays amenable to high throughput screening applications. Previously, we validated an assay that monitors the rate of autopalmitoylation by measuring the production of CoASH generated from the […] of palmitoyl-CoA [13]. This assay has a Z′-value of 0.87 [13]. […] This assay can be used to monitor autopalmitoylation in real time or as an end point assay, thus providing flexibility when screening small molecule compounds. Compounds with internal fluorescence or that affect the assay components are easily identified and excluded, allowing for the rapid identification of the compounds that inhibit or activate PAT autopalmitoylation activity. […]

[2] = test system: S. cerevisiae RJY1942 (sensitized); assay: Yeast cell spot assay, sensitized strain; format: cell-based; details: for inhibition at 5 µM: Saccharomyces cerevisiae
Protocol: (§1) Following 24 hrs incubation with varying concentrations of the inhibitors in 1% DMF, S. cerevisiae strains RJY1941 and RJY1942 were then diluted 1/100, and spotted onto SC-Ura plates with 2% glucose. Cytotoxicity data was obtained by detecting the colony growth, following 48 hrs incubation at 30° C., with white light detection on the Bio-Rad Molecular Imager® ChemiDoc™ XRS+ (Hercules, Calif.) and performing densitometry with Bio-Rad ImageLab™ Software (Hercules, Calif.). Triplicate reactions were plated in triplicate. Values were normalized to vehicle control (1% DMF) for each plate, and then the averages of each reaction were compared for statistical analysis.
(§2) We next compared the ability of either strain to grow following the 24 hrs incubation with Compounds 13, 14, or 25. Serial dilutions of RJY1941 and RJY1942 were spotted on agar plates following incubation for 24 hrs with varying inhibitor concentrations. […] Conversely, compound 13 inhibited (100%) the growth of RJY1942 (sensitized) at 5 μM.

Erf2 [3] = molecular target: T1, Erf2; assay: BODIPY-C12:0 gel-based assay of steady-state Erf2 autopalmitoylation; format: biochemical, S. cerevisiae
Protocol: BODIPY®-C12:0-CoA (40 μM final, unless specified otherwise) was added to a 50 μl reaction containing approximately 0.5 μg enzyme (6×HIS-Erf2-(FLAG)-Erf4) and 100 μM inhibitors in 5% DMF in 50 mM sodium phosphate buffer, pH 6.8. The reactions were incubated 10 mins with inhibitor, and then the reaction was initiated with the addition of BODIPY®-C12:0-CoA, and incubated 15 mins at 30° C. The reaction was terminated by the addition of 5× non-reducing protein loading buffer. Each reaction was heated at 65° C. for 3 mins and then subjected to SDS-PAGE (12%). The gel was rinsed three times in ddH2O and visualized on the Typhoon 9410 Variable Mode Imager (GE Healthcare, Piscataway, N.J.) for BODIPY® fluorescence (ex. 488 nm/em. 532 nm) to visualize co-migration of the BODIPY® signal with 6×HIS-Erf2-(FLAG)-Erf4. The amount of 6×HIS-Erf2-(FLAG)-Erf4 was determined empirically using SDS-PAGE analysis under reducing conditions against a standard curve of bovine serum albumin.
To determine if the ten compounds identified in this study were inhibiting autopalmitoylation, and not targeting hydrolysis of the enzyme, steady-state autopalmitoylation was evaluated at 100 μM of each compound compared to 100 μM 2-BP and DMF (vehicle) alone. […] From these screens we observed a decrease in BODIPY® fluorescence at the apparent molecular weight of Erf2. […]

Erf2 [4] = molecular target: T1, Erf2; details: previously demonstrated [13]; cited from earlier work
[5] = test system: S. cerevisiae RJY1942 (palmitoylation sensitive); assay: Growth inhibition assay, palmitoylation-sensitive strain; format: cell-based; details: for selectivity: EC50 in the control strain RJY1941 as compared to the sensitive strain RJY1942: growth curves, 24 hrs
Protocol: The in vivo effect of the inhibitors on Ras2 palmitoylation was investigated by comparing the growth of S. cerevisiae strains previously described for our complementation assay. Briefly, the cells contain a defective allele of RAS2 that is balanced by an episomal copy of RAS2 linked to URA3. Under these conditions, the yeast strain cannot grow unless the episomal copy of RAS2 is palmitoylated. Varying concentrations of the inhibitors were added to 200 μl volumes of the yeast cells at an OD600 between 0.8 and 1.2 in a 96-well plate format. The OD600 was observed every 30 mins for 24 hrs and EC50 values were determined by graphing rate of growth against concentration of inhibitor for each inhibitor.
To examine the inhibition of Ras palmitoylation in vivo, we utilized two strains of S. cerevisiae. The yeast strain RJY1942 (palmitoylation sensitive) requires Ras2 palmitoylation for viability. The isogenic wild type control yeast strain (RJY1941) is not dependent on Ras2 palmitoylation for viability. The growth of both strains was monitored in the presence (or absence) of our inhibitors every 30 mins for 24 hrs. EC50 values were calculated using GraphPad Prism® (La Jolla, Calif.) to extrapolate the effective concentration of each inhibitor that caused a 50% reduction in growth (FIG. 9). […] Compounds 13, 25, and 2-BP show a modest selectivity for the sensitive strain, RJY1942, over the control strain, RJY1941, resulting in a 2-fold greater EC50 value in the control strain as compared to the sensitive strain (values listed in FIG. 5, right panel). […] Additional work is needed to determine the mechanism of growth inhibition and selectivity of these compounds.

[6] = test system: S. cerevisiae RJY1941 (control); assay: Yeast cell spot assay, control strain; format: cell-based
Protocol: as §1, §2

[7] = spotted after 24 hrs incubation, read-out: inhibition of growth of RJY1942 (sensitized)
[8] = 20 μM, spotted after 24 hrs incubation
[9] = concentrations lower than 20 μM (2.5, 5, 10 μM)

CCCCCCCCCCCCCCC(Br)C(=O)O (stereo not drawn) [Compound 2-BP, 2-bromopalmitic acid, reference compound]
Ki (Erf2 [1]): 59 µM | VMAX for the Palmitoyl-CoA substrate (Erf2 [1]; inhibitor at 25 μM): 160 ± 5 µM | VMAX for the Palmitoyl-CoA substrate (Erf2 [1]; inhibitor at 50 μM): 126 ± 23 µM | VMAX for the Palmitoyl-CoA substrate (Erf2 [1]; inhibitor at 100 μM): 51 ± 8 µM | inhibition of yeast growth in spot assay ([2]; 2.5-20 μM on solid yeast medium, strain not specified): did not inhibit | Ki (Erf2 [3]; dose response curves of steady-state autopalmitoylation, read-out: steady-state autopalmitoylation inhibition constant (Ki), gel-based assay): 79 µM | mode of inhibition of Erf2 autopalmitoylation (Erf2 [4]): uncompetitive or mixed inhibitor | EC50 ([5]; Saccharomyces cerevisiae, read-out: EC50 (50% reduction in growth)): 12.5 µM | selectivity: EC50 in the control strain RJY1941 as compared to the sensitive strain RJY1942 [5]: 2 fold

CC(C)Cc1ccc(C(C)CN2CCNC[C@@H]2CCCCN2CCN(CC(C)c3ccc(CC(C)C)cc3)[C@@H](Cc3ccc(O)cc3)C2)cc1 (stereo partly drawn) [Compound 13, 4-(((2S)-1-(2-(4-isobutylphenyl)propyl)-4-(4-((2S)-1-(2-(4-isobutylphenyl)propyl)piperazin-2-yl)butyl)piperazin-2-yl)methyl)phenol]
VMAX for the Palmitoyl-CoA substrate (Erf2 [1]; inhibitor at 25 μM): 243 ± 20 µM | VMAX for the Palmitoyl-CoA substrate (Erf2 [1]; inhibitor at 50 μM): 354 ± 26 µM | VMAX for the Palmitoyl-CoA substrate (Erf2 [1]; inhibitor at 100 μM): 631 ± 94 µM | mode of inhibition of Erf2 autopalmitoylation (Erf2 [1]): Competitively | inhibition at 5 µM [2, 7]: 100% | mode of inhibition of steady-state Erf2 autopalmitoylation (Erf2 [3]; 25, 50, 100 μM compound at varying BODIPY-C12-CoA): acting competitively | inhibition of growth of RJY1941 (control) [6, 8]: completely inhibited | inhibition of growth of RJY1941 (control) [6, 9]: no detectable effect | selectivity: EC50 in the control strain RJY1941 as compared to the sensitive strain RJY1942 [5]: 2 fold

CC(C)Cc1ccc(C(C)CN2CCNC[C@@H]2CCCCN2CCN(CCc3cc(C(F)(F)F)cc(C(F)(F)F)c3)[C@@H](Cc3ccc(O)cc3)C2)cc1 (stereo partly drawn) [Compound 14, 4-(((2S)-1-(3,5-bis(trifluoromethyl)phenethyl)-4-(4-((2S)-1-(2-(4-isobutylphenyl)propyl)piperazin-2-yl)butyl)piperazin-2-yl)methyl)phenol]
inhibition at 5 µM [2, 7]: ~10% | inhibition of growth of RJY1942 (sensitized) ([2]; concentrations higher than 5 μM): total inhibition | inhibition of growth of RJY1941 (control) [6, 8]: completely inhibited | inhibition of growth of RJY1941 (control) [6, 9]: no detectable effect

CC(C)Cc1ccc(C(C)CN2CCN(CCCC[C@H]3CNCCN3CCc3cc(C(F)(F)F)cc(C(F)(F)F)c3)C[C@@H]2Cc2ccc(O)cc2)cc1 (stereo partly drawn) [Compound 25, 4-(((2S)-4-(4-((S)-1-(3,5-bis(trifluoromethyl)phenethyl)piperazin-2-yl)butyl)-1-(2-(4-isobutylphenyl)propyl)piperazin-2-yl)methyl)phenol]
VMAX for the Palmitoyl-CoA substrate (Erf2 [1]; inhibitor at 25 μM): 307 ± 30 µM | VMAX for the Palmitoyl-CoA substrate (Erf2 [1]; inhibitor at 50 μM): 344 ± 34 µM | VMAX for the Palmitoyl-CoA substrate (Erf2 [1]; inhibitor at 100 μM): 542 ± 60 µM | mode of inhibition of Erf2 autopalmitoylation (Erf2 [1]): Competitively | inhibition at 5 µM ([2]; read-out: inhibition of growth of RJY1942 (sensitized), relative to that observed for compound 13): ~90% | inhibition of growth of RJY1941 (control) [6, 8]: completely inhibited | inhibition of growth of RJY1941 (control) [6, 9]: no detectable effect | selectivity: EC50 in the control strain RJY1941 as compared to the sensitive strain RJY1942 [5]: 2 fold
